Measurements: patent US10889627B2, “Pro-drug peptide with improved pharmaceutical properties” (UREKA SARL, priority 2017, dated 2021)
Like-named read-outs stand apart in the source and are kept apart here.

Assays:
[1] = pH 7.4
Experimental: (§1) A solution of the compound (e.g., glucagon or analogues thereof) was prepared in a 0.01M HCl solution. Then 0.1 mL of the stock solution was diluted to 1 mL with HCl (0.01M) and the UV absorbance was measured (to 280 nm) with NanoDrop UV spectrometer (NanoDrop 1000 from Thermo Fischer Company). The pH of the remaining stock solution was adjusted to pH 7 using Na2HPO4 (0.1M) and the solution was allowed to stand overnight at 4° C. Then the solution was centrifuged three times (5 min, 4000 min^−1), 0.1 mL of the supernatant was removed and diluted to 1 mL with HCl solution (0.01M). The final UV absorbance was measured. The solubility was accessible by the following formula: (Final Absorbance/Initial Absorbance)×100=Percent Soluble

[2] = Solubility assay (Example 2, percent soluble by UV absorbance); conditions: PBS buffer (0.1M) at pH 7.4
Experimental: as §1

[3] = Stability assay in NaCl 0.9% aqueous solution (RP-HPLC); type: physicochemical; conditions: 1 mg/mL
Experimental: A solution of 1 mg/mL of peptide or peptidomimetic (glucagon or analog thereof) was prepared in a NaCl 0.9% aqueous solution and stored at room temperature, or 4° C., or 37° C. and or 50° C. The samples were analyzed by RP-HPLC on a Dionex U3000SD using a Macherey-Nagel Nucleodur C18ec column (4×100 mm, 3 μm) at a flow rate of 1 mL/min with UV detection at 200 nm. The mobile phase was composed of 0.1% (v/v) TFA-H2O (Solvent A) and 0.1% (v/v) TFA-CH3CN (Solvent B).

[4] = test system: Wistar Rat; test: Rat studies, blood glucose after i.v. dosing (Example 2); type: in vivo; conditions: Wistar rats, 3 hours fasting, 10 nM/kg i.v., FIGS. 12 and 13
Text: The rats (Wistar Rat, males, 8-week old, n=6 or 3) were housed in ventilated and enriched housing cages (310×125×127 mm^3) throughout the experimental phase. […] The rates were acclimated for 5 days with standard diet and tap water.

Row | Solubility at 1 mg/mL [1] | Solubility at 1 mg/mL [2] | Percentage of peptide remaining ([3]; 4° C., 1 month (T0 = 100%)) | Percentage of peptide remaining ([3]; 4° C., 1 week (T0 = 100%)) | Percentage of peptide remaining ([3]; 4° C., 5 months (T0 = 100%)) | Percentage of peptide remaining ([3]; RT, 1 month (T0 = 100%)) | Percentage of peptide remaining ([3]; RT, 1 week (T0 = 100%)) | Percentage of peptide remaining ([3]; RT, 5 months (T0 = 100%)) | Substance | Glycogen breakdown (increased blood glucose levels) compared to glucagon [4]
1 | 18% | – | – | – | – | – | – | – | EPHSQGTFTSDYSKYLDSRRAQDFVQWLLNT-NH2 [Peptide 18] | –
2 | – | 34% | – | – | – | – | – | – | K*PHSQGTFTSDYSKYLDSRRAQDFVQWLLNT-NH2 [Peptide 22] | –
3 | – | 77% | 99% | 99% | 97% | 97% | 99% | 87% | KPKPKPHSQGTFTSDYSKYLDSRRAQDFVQWLLNT-NH2 [Peptide 14] | greater glycogen breakdown
